Test results published in ChEMBL document CHEMBL1201862, “PubChem BioAssay data set” (2004).
Calls of active or inactive are those of the source.

What was measured:
Assay type in all cases: functional
CHO-K1 = assay: Counterscreen for antagonists of the orexin 1 receptor (OX1R; HCRTR1): Homogeneous time resolved fluorescence (HTRF)-based cell-based dose response assay to identify antagonists of the parental CHO-K1 cell line. [Related pubchem assays (depositor defined):AID434989, AID435008, AID463079, AID485270, AID492963, AID492964, AID492965, AID493232, AID504699, AID504701]; conditions: Cricetulus griseus;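 note: potency for inhibition of ATP-stimulated IP1 production as antagonists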
[1] = molecular target: T1, Orexin/Hypocretin receptor type 1 (Homo sapiens, UniProt O43613); assay: Homogeneous Time Resolved Fluorescence (HTRF)-based cell-based high throughput dose response assay for antagonists of the orexin 1 receptor (OX1R; HCRTR1). [Related pubchem assays (depositor defined):AID434989, AID435008, AID463079, AID485270, AID492963, AID492964, AID492965, AID493232, AID504717, AID504718];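 note: antagonism measured against Orexin-A challenge at about its EC80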
T1 sequence (O43613 whole entry): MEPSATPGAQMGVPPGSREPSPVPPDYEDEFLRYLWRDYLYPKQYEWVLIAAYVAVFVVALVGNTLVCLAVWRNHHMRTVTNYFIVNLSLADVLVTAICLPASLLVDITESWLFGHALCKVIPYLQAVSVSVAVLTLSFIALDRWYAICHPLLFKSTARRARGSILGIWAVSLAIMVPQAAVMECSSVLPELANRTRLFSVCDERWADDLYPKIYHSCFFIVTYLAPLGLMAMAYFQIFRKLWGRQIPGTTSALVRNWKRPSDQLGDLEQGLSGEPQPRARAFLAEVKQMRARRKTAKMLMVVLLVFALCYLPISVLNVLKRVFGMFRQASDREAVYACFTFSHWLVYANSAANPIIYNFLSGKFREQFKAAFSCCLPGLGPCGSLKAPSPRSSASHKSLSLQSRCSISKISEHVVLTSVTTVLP

Orexin receptor type 2 = molecular target: T2, Orexin receptor type 2 (Homo sapiens, UniProt O43614); assay: Counterscreen assay for antagonists of the orexin 1 receptor (OX1R; HCRTR1): Fluorescence-based cell-based dose response assay for antagonists of the orexin 2 receptor (OX2R; HCRTR2), run by assay provider.
T2 sequence (O43614 whole entry): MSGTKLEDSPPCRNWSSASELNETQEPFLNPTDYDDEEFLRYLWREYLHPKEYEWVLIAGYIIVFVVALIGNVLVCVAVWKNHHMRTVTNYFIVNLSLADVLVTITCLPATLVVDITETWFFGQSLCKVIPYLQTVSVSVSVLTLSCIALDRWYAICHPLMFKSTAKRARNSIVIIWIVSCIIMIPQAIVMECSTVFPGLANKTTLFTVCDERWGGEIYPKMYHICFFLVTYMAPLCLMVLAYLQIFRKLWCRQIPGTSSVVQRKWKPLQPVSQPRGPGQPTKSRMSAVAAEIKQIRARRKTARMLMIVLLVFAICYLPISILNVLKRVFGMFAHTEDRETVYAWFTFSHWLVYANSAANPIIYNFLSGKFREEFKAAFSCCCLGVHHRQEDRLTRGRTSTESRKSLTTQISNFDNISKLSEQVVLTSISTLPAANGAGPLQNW

[2] = molecular target: Dual specificity protein kinase CLK2 (Homo sapiens, UniProt P49760)
[3] = molecular target: Dual specificity mitogen-activated protein kinase kinase 1 (Homo sapiens, UniProt Q02750); assay: Navigating the Kinome. Panel member name: MAP2K1
[4] = molecular target: ALK tyrosine kinase receptor (Homo sapiens, UniProt Q9UM73);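 note: ALK tested as one member of a kinase panel screen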
[5] = molecular target: Tyrosine-protein kinase receptor TYRO3 (Homo sapiens, UniProt Q06418);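 note: TYRO3 value obtained as one member of a kinome-wide profiling panel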
Sequence of Tyrosine-protein kinase receptor TYRO3 (Q06418 whole entry): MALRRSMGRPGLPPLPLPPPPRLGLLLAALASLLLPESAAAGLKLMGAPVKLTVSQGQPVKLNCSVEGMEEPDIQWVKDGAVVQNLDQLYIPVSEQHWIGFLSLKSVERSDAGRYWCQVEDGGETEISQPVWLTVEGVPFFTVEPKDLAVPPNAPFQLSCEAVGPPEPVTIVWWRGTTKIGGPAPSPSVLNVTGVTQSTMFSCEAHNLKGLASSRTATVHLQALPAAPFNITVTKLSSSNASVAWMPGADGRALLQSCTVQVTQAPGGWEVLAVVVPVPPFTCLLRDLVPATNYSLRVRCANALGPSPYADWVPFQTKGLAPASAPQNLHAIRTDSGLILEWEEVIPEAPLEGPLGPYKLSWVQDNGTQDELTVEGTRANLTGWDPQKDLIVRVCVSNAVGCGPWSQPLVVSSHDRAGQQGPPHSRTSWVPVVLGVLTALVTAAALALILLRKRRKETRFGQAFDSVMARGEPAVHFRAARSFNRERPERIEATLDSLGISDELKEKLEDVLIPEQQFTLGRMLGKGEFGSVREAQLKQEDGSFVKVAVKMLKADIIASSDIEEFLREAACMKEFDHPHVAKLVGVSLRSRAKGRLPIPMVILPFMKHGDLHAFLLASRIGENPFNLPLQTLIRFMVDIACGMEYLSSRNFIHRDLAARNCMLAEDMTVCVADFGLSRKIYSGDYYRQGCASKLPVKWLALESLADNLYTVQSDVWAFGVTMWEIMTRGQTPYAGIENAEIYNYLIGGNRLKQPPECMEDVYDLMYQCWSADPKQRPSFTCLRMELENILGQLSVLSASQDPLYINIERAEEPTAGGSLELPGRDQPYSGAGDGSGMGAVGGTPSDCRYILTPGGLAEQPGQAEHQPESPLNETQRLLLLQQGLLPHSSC

Activin receptor type-1 = Activin receptor type-1 (Homo sapiens, UniProt Q04771); assay: Navigating the Kinome. Panel member name: ACVR1
[6] = molecular target: Mitogen-activated protein kinase 8 (Homo sapiens, UniProt P45983);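 note: value comes from one member of a kinome-wide kinase profiling panel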
Sequence of Mitogen-activated protein kinase 8 (P45983 whole entry): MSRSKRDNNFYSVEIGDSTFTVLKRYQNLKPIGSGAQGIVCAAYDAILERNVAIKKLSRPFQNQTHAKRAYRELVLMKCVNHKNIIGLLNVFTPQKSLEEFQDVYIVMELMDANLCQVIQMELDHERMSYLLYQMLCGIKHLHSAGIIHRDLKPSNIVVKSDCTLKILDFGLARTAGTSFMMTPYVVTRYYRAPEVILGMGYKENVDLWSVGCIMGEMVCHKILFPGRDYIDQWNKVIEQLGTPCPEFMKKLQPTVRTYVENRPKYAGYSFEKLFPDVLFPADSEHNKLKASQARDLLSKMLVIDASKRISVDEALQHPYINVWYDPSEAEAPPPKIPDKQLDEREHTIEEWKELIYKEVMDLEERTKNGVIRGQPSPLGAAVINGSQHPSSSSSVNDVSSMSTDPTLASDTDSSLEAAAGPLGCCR

Aurora kinase A = molecular target: T3, Aurora kinase A (Homo sapiens, UniProt O14965);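 note: value from the Navigating the Kinome kinase panel profiling, panel entry STK6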
T3 sequence (O14965 whole entry): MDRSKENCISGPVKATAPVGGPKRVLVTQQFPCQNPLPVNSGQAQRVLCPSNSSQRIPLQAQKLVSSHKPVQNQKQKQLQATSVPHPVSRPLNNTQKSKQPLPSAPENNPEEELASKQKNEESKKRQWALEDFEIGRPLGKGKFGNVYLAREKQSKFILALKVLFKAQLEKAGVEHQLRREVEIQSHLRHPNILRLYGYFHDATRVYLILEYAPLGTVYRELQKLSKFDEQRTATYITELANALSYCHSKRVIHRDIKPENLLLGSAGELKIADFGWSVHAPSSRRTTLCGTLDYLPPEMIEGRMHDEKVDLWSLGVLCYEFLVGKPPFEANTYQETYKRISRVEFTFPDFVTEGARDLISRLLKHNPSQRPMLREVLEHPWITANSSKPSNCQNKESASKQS

[7] = molecular target: Tyrosine-protein kinase BTK (Homo sapiens, UniProt Q06187)
[8] = molecular target: Casein kinase I isoform alpha (Homo sapiens, UniProt P48729)
[9] = molecular target: Tyrosine-protein kinase JAK3 (Homo sapiens, UniProt P52333)
Sequence of Tyrosine-protein kinase JAK3 (P52333 whole entry): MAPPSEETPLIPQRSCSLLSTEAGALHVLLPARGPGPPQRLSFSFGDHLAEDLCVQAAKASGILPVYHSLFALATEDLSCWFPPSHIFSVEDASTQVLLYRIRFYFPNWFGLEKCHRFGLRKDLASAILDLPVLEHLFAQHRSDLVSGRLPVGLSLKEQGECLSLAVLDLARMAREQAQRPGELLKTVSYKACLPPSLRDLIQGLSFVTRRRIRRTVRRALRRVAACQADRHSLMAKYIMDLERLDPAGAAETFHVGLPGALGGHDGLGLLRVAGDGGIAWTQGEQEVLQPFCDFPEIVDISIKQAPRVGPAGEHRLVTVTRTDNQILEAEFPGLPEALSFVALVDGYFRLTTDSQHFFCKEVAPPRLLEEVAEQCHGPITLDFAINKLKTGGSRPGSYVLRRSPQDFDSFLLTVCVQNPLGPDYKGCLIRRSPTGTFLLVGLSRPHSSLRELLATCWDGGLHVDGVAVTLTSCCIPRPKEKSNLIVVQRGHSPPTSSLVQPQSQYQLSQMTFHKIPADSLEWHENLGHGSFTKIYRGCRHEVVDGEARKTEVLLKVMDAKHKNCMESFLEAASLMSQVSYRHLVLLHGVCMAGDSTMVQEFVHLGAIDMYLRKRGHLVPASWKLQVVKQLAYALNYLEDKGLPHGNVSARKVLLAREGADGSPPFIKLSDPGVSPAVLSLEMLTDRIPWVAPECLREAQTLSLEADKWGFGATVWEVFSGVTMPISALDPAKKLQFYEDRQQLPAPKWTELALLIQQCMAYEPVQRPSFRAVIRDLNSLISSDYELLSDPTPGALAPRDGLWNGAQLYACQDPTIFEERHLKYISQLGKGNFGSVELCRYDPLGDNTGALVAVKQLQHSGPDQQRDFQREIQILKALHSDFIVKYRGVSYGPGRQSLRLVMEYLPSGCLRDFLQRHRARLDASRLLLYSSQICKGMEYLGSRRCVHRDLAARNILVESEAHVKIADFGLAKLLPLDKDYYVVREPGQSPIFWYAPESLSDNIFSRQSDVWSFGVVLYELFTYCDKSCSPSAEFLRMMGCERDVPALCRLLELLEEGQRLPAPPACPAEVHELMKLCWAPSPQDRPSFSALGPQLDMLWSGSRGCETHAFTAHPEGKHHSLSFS

[10] = molecular target: Serine/threonine-protein kinase TAO1 (Homo sapiens, UniProt Q7L7X3)
[11] = molecular target: Receptor-type tyrosine-protein kinase FLT3 (Homo sapiens, UniProt P36888);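 note: FLT3 was tested as one member of a kinome-wide kinase panel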
Sequence of Receptor-type tyrosine-protein kinase FLT3 (P36888 whole entry): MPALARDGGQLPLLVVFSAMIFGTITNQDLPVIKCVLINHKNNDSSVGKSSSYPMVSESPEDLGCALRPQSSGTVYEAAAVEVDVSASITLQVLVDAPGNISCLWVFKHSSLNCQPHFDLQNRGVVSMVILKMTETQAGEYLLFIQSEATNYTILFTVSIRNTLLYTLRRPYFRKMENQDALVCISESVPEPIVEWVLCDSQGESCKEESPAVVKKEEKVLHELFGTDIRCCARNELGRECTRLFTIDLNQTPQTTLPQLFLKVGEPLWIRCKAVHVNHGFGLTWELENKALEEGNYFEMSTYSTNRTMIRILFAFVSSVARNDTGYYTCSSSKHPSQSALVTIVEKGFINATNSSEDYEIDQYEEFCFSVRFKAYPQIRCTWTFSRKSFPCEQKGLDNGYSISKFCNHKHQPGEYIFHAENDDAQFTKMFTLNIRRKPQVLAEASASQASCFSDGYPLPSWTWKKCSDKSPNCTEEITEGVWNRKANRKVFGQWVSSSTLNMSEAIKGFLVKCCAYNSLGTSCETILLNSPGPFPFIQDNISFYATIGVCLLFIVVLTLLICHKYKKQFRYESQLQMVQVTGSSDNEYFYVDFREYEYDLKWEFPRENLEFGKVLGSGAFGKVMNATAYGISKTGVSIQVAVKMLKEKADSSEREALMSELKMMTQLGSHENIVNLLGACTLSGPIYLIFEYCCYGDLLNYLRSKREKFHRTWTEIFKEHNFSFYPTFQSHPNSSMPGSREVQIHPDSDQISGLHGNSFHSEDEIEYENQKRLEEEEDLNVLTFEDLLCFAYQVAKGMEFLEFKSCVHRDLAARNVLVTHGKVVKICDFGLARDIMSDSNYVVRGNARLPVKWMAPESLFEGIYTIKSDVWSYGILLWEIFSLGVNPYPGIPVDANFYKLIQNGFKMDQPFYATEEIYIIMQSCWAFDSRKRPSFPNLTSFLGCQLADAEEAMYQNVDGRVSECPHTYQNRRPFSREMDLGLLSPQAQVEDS

[12] = molecular target: Cyclin-dependent kinase 5 (Homo sapiens, UniProt Q00535);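 note: CDK5 measured as one member of a kinase profiling panel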
[13] = molecular target: Dual specificity tyrosine-phosphorylation-regulated kinase 1B (Homo sapiens, UniProt Q9Y463); assay: Navigating the Kinome. Panel member name: DYRK1B
[14] = molecular target: cAMP-dependent protein kinase catalytic subunit PRKX (Homo sapiens, UniProt P51817)
[15] = molecular target: Leucine-rich repeat serine/threonine-protein kinase 2 (Homo sapiens, UniProt Q5S007);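 note: value from a broad kinome-wide panel profiling study in which LRRK2 was one of the kinases tested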
[16] = molecular target: Tyrosine-protein kinase Fyn (Homo sapiens, UniProt P06241)
Sequence of Tyrosine-protein kinase Fyn (P06241 whole entry): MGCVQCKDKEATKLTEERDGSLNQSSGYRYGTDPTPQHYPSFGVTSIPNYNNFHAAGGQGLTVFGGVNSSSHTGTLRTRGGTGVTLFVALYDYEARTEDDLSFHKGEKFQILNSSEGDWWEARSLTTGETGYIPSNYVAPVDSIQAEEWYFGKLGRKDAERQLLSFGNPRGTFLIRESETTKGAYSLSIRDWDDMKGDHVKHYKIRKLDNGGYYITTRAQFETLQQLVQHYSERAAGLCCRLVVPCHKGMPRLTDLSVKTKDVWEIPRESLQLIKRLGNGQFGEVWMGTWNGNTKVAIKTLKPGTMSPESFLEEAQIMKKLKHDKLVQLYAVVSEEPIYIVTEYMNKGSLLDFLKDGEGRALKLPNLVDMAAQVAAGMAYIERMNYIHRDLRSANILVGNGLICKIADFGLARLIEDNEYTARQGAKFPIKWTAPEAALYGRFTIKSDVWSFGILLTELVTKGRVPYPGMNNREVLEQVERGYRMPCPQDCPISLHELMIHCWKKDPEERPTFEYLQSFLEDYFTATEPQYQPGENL

[17] = molecular target: BDNF/NT-3 growth factors receptor (Homo sapiens, UniProt Q16620);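 note: NTRK2 measured as one member of a broad kinome-wide kinase profiling panel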
Sequence of BDNF/NT-3 growth factors receptor (Q16620 whole entry): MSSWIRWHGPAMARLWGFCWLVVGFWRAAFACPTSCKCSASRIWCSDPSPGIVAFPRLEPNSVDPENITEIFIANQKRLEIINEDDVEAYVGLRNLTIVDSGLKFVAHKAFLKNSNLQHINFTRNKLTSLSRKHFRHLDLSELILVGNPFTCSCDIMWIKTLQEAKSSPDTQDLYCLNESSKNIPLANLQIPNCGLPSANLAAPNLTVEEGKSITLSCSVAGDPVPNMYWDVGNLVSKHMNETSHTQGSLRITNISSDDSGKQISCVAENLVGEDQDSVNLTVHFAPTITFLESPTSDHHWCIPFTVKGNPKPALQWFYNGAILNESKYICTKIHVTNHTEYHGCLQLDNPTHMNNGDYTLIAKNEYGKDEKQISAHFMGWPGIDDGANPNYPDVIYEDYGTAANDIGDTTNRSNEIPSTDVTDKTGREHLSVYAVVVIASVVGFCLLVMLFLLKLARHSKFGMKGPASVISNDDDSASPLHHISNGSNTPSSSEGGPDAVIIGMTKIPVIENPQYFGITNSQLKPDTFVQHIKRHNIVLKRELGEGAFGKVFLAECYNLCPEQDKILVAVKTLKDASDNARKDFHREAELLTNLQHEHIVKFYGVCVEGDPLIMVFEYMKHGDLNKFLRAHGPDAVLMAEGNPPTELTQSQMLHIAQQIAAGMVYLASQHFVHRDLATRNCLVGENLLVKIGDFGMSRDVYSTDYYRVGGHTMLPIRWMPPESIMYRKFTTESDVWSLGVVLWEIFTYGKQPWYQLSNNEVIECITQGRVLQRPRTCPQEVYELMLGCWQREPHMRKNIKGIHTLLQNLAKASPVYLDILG

[18] = molecular target: Dual specificity protein kinase CLK4 (Homo sapiens, UniProt Q9HAZ1)
[19] = molecular target: Macrophage-stimulating protein receptor (Homo sapiens, UniProt Q04912); assay: Navigating the Kinome. Panel member name: MST1R
[20] = molecular target: Dual specificity tyrosine-phosphorylation-regulated kinase 1A (Homo sapiens, UniProt Q13627);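 note: measured against DYRK1A as one member of a broad kinome profiling panel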
[21] = molecular target: Leukocyte tyrosine kinase receptor (Homo sapiens, UniProt P29376); assay: Navigating the Kinome. Panel member name: LTK
[22] = molecular target: Mitogen-activated protein kinase 14 (Homo sapiens, UniProt Q16539);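 note: part of a kinome-wide panel, MAPK14 entry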

Cc1ccnc2ccc(-c3nc4ccccc4o3)cc12
IC50 (CHO-K1): > 66200 nM (inactive)
IC50 [1]: 1100 nM (active)
IC50 (Orexin receptor type 2): > 88800 nM (inactive)

O=C(NCCc1cccs1)N1CC=C(c2c[nH]c3ncccc23)CC1
Ki [2]: 501 nM (active)
Ki [3]: 2510 nM (active)
Ki [4]: > 6310 nM (inactive)
Ki [5]: > 3160 nM (inactive)
Ki (Activin receptor type-1): 1260 nM (active)
Ki [6]: 3980 nM (active)
Ki (Aurora kinase A): > 1580 nM (inactive)
Ki [7]: > 6310 nM (inactive)
Ki [8]: 1580 nM (active)
Ki [9]: > 5010 nM (inactive)
Ki [10]: > 6310 nM (inactive)
Ki [11]: > 3160 nM (inactive)
Ki [12]: 158 nM (active)
Ki [13]: 39.8 nM (active)
Ki [14]: 158 nM (active)
Ki [15]: 631 nM (active)
Ki [16]: > 6310 nM (inactive)
Ki [17]: > 3980 nM (inactive)
Ki [18]: 15.8 nM (active)
Ki [19]: 2510 nM (active)
Ki [20]: 126 nM (active)
Ki [21]: > 2510 nM (inactive)
Ki [22]: > 3980 nM (inactive)
